Experiment [1] addresses human emopamil binding protein and human 7-dehydrocholesterol reductase co-expressing cells (hEBP-DHCR7 membrane) (Homo sapiens (Human), UniProt Q15125). Nature of the experiment: Radioligand filter binding assay on hEBP-DHCR7 membrane. The settings on record: [3H]-(S)-6-(2-Methyl-3-(6-(trifluoromethyl)pyridin-3-yl)propyl)-2-thia-6-azaspiro[3.4]octane 2,2-dioxide radioligand, HEK293 membrane co-expressing hEBP and hDHCR7. The procedure, abridged:
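HEK293 cells transiently co-expressing human EBP and DHCR7 supplied whole-cell membranes (10 μg/well), incubated 3 h at 22 °C with [3H]-labelled spiro-octane dioxide ligand (added at 25 nM) and compound (0.06-5000 nM final, 8 doses, n=2). Bound ligand was collected on PEI-treated GF/B filters and counted by scintillation. IC50 was Hill-fitted from % inhibition and reported as Ki.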

The next experiment concerns EpiSC-derived OPCs. Nature of the experiment: In vitro phenotypic screening of OPCs (MBP staining, high-content imaging). Format: cell-based, mouse. The settings on record: percentage of MBP+ oligodendrocytes, 3 days, 0.5 nM to 1000 nM, read-out: OPC EC50. As for the experimental part:
To assess effects of treatments on OPCs, all treatments were assayed in two or more independent platings of epiblast stem cell-derived OPCs (EpiSC). EpiSC-derived OPCs were obtained using in vitro differentiation protocols and culture conditions described previously (Najm et al, 2011, Nature Methods). OPCs were expanded and frozen down in aliquots. OPCs were thawed into growth conditions for at least one passage before use in further assays.
EpiSC-derived OPCs were grown and expanded in poly-L-ornithine (PO) and laminin-coated flasks in N2B27 media (DMEM/F12 (Gibco), N2-MAX (R&D Systems), B-27 (ThermoFisher), and GlutaMax (Gibco)) supplemented with FGF2 ([…], R&D systems, 233-FB-025) and PDGF-AA ([…], R&D systems, 233-AA-050) before harvesting for experiments. The cells were seeded onto poly-L-ornithine or poly-D-lysine coated CellCarrier Ultra plates (PerkinElmer) coated with laminin (Sigma, L2020) at a density of 150,000/cm^2 in N2B27 media without growth factors. For dose-response testing, a 1000× compound stock in dimethyl sulphoxide (DMSO) was added to assay plates, resulting in 8-point dose curves with final concentrations between 1000 nM and 0.5 nM. Positive controls and DMSO vehicle controls were included in each assay plate. Cells were incubated under standard conditions (37° C., 5% CO2) for 3 days and fixed with 4% paraformaldehyde (PFA) in phosphate buffered saline (PBS) for 20 min. Fixed plates were washed with PBS, permeabilized with 0.1% Triton X-100, and blocked with 10% donkey serum (v/v) in PBS for 40 min. Then, cells were labelled with MBP antibodies (Abcam, ab7349; 1:200) for 2 h at room temperature, washed with PBS, and stained with Alexa Fluor conjugated secondary antibodies (1:500) for 45 min. Nuclei were visualized by DAPI staining (Sigma; 1 μg/ml), followed by further PBS washes.
Cells and cell culture plates were imaged on the Operetta High Content Imaging and Analysis system (PerkinElmer). Analysis (PerkinElmer Harmony and Columbus software) began by identifying intact nuclei stained by DAPI. The peri-nuclear region of each cell was then cross-referenced with the mature myelin protein (MBP) stain to identify oligodendrocyte nuclei, and from this the percentage of oligodendrocytes was calculated. EC50 values were calculated using The Levenberg-Marquardt algorithm to fit a Hill equation to dose-response data (0.5 nM to 1000 nM).

Experiment [2] relates to EBP (zymostenol accumulation in EpiSC-derived OPCs). Nature of the experiment: GC/MS-based sterol profiling, zymostenol accumulation in OPCs. Format: cell-based, mouse. The settings on record: EpiSC-derived OPCs, 24 hr treatment, 8 doses from 0.15 nM to 333 nM, read-out: Zymostenol GCMS EC50. The gist of the method: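 EpiSC-derived OPCs (100,000/well) were treated 24 h in N2B27 without growth factors. Sterols were TMS-derivatized and analysed by GC/MS full-scan EI, quantified against cholesterol-d7. Zymostenol was normalized to the level after 24 h with 100 nM positive control reference.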

Like-named read-outs stand apart in the source and are kept apart here.

human emopamil binding protein and human 7-dehydrocholesterol reductase co-expressing cells (hEBP-DHCR7 membrane), sequence (Q15125 whole entry): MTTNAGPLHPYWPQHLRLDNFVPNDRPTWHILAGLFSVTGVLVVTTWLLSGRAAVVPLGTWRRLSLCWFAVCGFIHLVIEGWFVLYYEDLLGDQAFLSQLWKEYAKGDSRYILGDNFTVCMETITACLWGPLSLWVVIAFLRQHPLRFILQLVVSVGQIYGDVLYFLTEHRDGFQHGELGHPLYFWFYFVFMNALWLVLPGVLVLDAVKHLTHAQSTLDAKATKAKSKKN

In turn, `O=S1(=O)CC2(CCN([C@@H]3CCC[C@@H](c4ccc(C(F)(F)F)nc4)C3)C2)C1` (single isomer, unassigned) [54B*] came in with a Ki in experiment [1] of 100 nM. In addition, the EC50 with EpiSC-derived OPCs (Mus musculus, 72 h) turned out to be 1000 nM; in experiment [2] (Mus musculus, 24 h), 240 nM.
The like results for `O=S1(=O)CC2(CCN([C@H]3CCC[C@H](c4ccc(C(F)(F)F)nc4)C3)C2)C1` (single isomer, unassigned) [54D*] were, in that order, 68 nM, 35 nM and 13 nM.
The corresponding values for `O=S1(=O)CC2(CCN([C@@H]3CCCN(c4ccc(C(F)(F)F)cc4)C3)CC2)C1` (single isomer, unassigned) [55A*] are 2.8 nM, 15 nM and 2.3 nM.
The corresponding values for `O=S1(=O)CC2(CCN([C@H]3CCCN(c4ccc(C(F)(F)F)cc4)C3)CC2)C1` (single isomer, unassigned) [55B*] are 14 nM, 330 nM and 25 nM.
Turning to `O=S1(=O)CC2(CCN([C@@H]3CCC[C@H](c4ccc(C(F)(F)F)nc4)C3)CC2)C1` (single isomer, unassigned) [56A*], the inhibitory constant (Ki) in experiment [1] was determined as 61 nM. Besides, the EC50 in the experiment on EpiSC-derived OPCs (Mus musculus, 72 h) worked out at 270 nM; in experiment [2] (Mus musculus, 24 h), 30 nM.
The like results for `O=S1(=O)CC2(CCN([C@H]3CCC[C@H](c4ccc(C(F)(F)F)nc4)C3)CC2)C1` (single isomer, unassigned) [56B*] were, in that order, 170 nM, 870 nM and 320 nM.
The like results for `O=S1(=O)CC2(CCN([C@H]3CCC[C@@H](c4ccc(C(F)(F)F)nc4)C3)CC2)C1` (single isomer, unassigned) [56C*] were, in that order, 140 nM, 76 nM and 19 nM.
The corresponding values for `O=S1(=O)CC2(CCN([C@@H]3CCC[C@@H](c4ccc(C(F)(F)F)nc4)C3)CC2)C1` (single isomer, unassigned) [56D*] are 65 nM, 690 nM and 150 nM.
As for `O=S1(=O)CC2(CCN([C@@H]3CC[C@@H](c4ccc(C(F)(F)F)nc4)C3)CC2)C1` (single isomer, unassigned) [57A*], in experiment [1], the Ki turned out to be 160 nM. The EC50 in the experiment with EpiSC-derived OPCs was found to be 65 nM; in experiment [2] (Mus musculus, 24 h), 24 nM.
`O=S1(=O)CC2(CCN([C@@H]3CC[C@@H](c4ccc(C(F)(F)F)nc4)C3)CC2)C1` (single isomer, unassigned) [57B*] gave a Ki in experiment [1] of 200 nM. The EC50 with EpiSC-derived OPCs came to 160 nM; in experiment [2] it was 44 nM.
`O=S1(=O)CC2(CCN([C@@H]3CC[C@H](c4ccc(C(F)(F)F)nc4)C3)CC2)C1` (single isomer, unassigned) [57C*]: in experiment [1], affinity was put at a Ki of 120 nM. For the same compound, the EC50 is 53 nM in the experiment on EpiSC-derived OPCs (Mus musculus, 72 h) and 16 nM in experiment [2] (Mus musculus, 24 h).
The like results for `O=S1(=O)CC2(CCN([C@H]3CC[C@H](c4ccc(C(F)(F)F)nc4)C3)CC2)C1` (single isomer, unassigned) [57D*] were, in that order, 150 nM, 130 nM and 18 nM.
The like results for `CC(C)n1nc(C(F)(F)F)cc1[C@@H]1CCC[C@H](N2CCC3(C2)CS(=O)(=O)C3)C1` (single isomer, unassigned) [61C*] were, in that order, 31 nM, 53 nM and 7.5 nM.
The like results for `O=S1(=O)CC[C@@]2(CCCN([C@H]3CC[C@H](c4ccc(C(F)(F)F)cn4)CC3)C2)C1` (single isomer, unassigned) [68B*] were, in that order, 41 nM, 22 nM and 5.8 nM.
For the compound `O=S1(=O)CC[C@@]2(CCCN([C@H]3CC[C@@H](c4cc(C(F)(F)F)nn4C4CC4)CC3)C2)C1` (single isomer, unassigned) [69A*], the affinity in experiment [1], expressed as Ki, was 24 nM. Further, the EC50 in the experiment with EpiSC-derived OPCs (Mus musculus, 72 h) is 7.5 nM; in experiment [2] (Mus musculus, 24 h), 2.1 nM.
The like results for `O=S1(=O)CC[C@]2(CCCN([C@H]3CC[C@@H](c4cc(C(F)(F)F)nn4C4CC4)CC3)C2)C1` (single isomer, unassigned) [69C*] were, in that order, 27 nM, 44 nM and 6 nM.
The like results for `CC(C)n1nc(C(F)(F)F)cc1[C@@H]1CCC[C@H](N2CCC3(CC2)CS(=O)(=O)C3)C1` (single isomer, unassigned) [78B*] were, in that order, 26 nM, 140 nM and 22 nM.
The corresponding values for `CC(C)n1nc(C(F)(F)F)cc1[C@H]1CCC[C@@H](N2CCC3(CC2)CS(=O)(=O)C3)C1` (single isomer, unassigned) [78C*] are 790 nM, 273 nM and 28 nM.
`CC(C)n1nc(C(F)(F)F)cc1[C@H]1CCC[C@H](N2CCC3(CC2)CS(=O)(=O)C3)C1` (single isomer, unassigned) [78D*]: the Ki in experiment [1] is 37 nM. Moreover, the EC50 was 124 nM in the experiment with EpiSC-derived OPCs (Mus musculus, 72 h) and 19 nM in experiment [2] (Mus musculus, 24 h).
The corresponding values for `O=S1(=O)CC2(CCN(C3CC[C@H](c4nc(-c5cccc(C(F)(F)F)n5)nn4C4CC4)C3)CC2)C1` (stereo in doubt) [42C*, 7-((1S,3S)-3-(1-Cyclopropyl-3-(6-(trifluoromethyl)pyridin-2-yl)-1H-1,2,4-triazol-5-yl)cyclopentyl)-2-thia-7-azaspiro[3.5]nonane 2,2-dioxide] are 1180 nM, 190 nM and 88 nM.
The corresponding values for `O=S1(=O)CC2(CCN(C3CC[C@H](c4nc(-c5cccc(C(F)(F)F)n5)nn4C4CC4)C3)CC2)C1` (stereo in doubt) [42D*, 7-((1R,3S)-3-(1-Cyclopropyl-3-(6-(trifluoromethyl)pyridin-2-yl)-1H-1,2,4-triazol-5-yl)cyclopentyl)-2-thia-7-azaspiro[3.5]nonane 2,2-dioxide] are 670 nM, 120 nM and 45 nM.
`CCn1nc(-c2ccc(C(F)(F)F)nc2)nc1[C@H]1CC[C@H](N2CCC3(CC2)CS(=O)(=O)C3)CC1` (stereo in doubt) [43A*, (trans)-7-(-4-(1-Ethyl-3-(6-(trifluoromethyl)pyridin-3-yl)-1H-1,2,4-triazol-5-yl)cyclohexyl)-2-thia-7-azaspiro[3.5]nonane 2,2-dioxide]: the Ki in experiment [1] worked out at 125 nM. Moreover, the EC50 came out at 27 nM in the experiment on EpiSC-derived OPCs (Mus musculus, 72 h) and 8 nM in experiment [2] (Mus musculus, 24 h).
Compound `CCn1nc(-c2ccc(C(F)(F)F)nc2)nc1[C@H]1CC[C@@H](N2CCC3(CC2)CS(=O)(=O)C3)CC1` (stereo in doubt) [43B*, (cis)-7-(-4-(1-ethyl-3-(6-(trifluoromethyl)pyridin-3-yl)-1H-1,2,4-triazol-5-yl)cyclohexyl)-2-thia-7-azaspiro[3.5]nonane 2,2-dioxide] yielded a Ki in experiment [1] of 510 nM. The half-maximal effective concentration (EC50) with EpiSC-derived OPCs (Mus musculus, 72 h) is 160 nM; in experiment [2] (Mus musculus, 24 h) it was 80 nM.
In experiment [1], `CC(C)n1nc(-c2ccc(C(F)(F)F)cc2)nc1[C@H]1CCC(N2CCC3(CC2)CS(=O)(=O)C3)C1` (stereo in doubt) [Compound 58A, 7-((1R,3S)-3-(1-Isopropyl-3-(4-(trifluoromethyl)phenyl)-1H-1,2,4-triazol-5-yl)cyclopentyl)-2-thia-7-azaspiro[3.5]nonane 2,2-dioxide] showed a Ki of 22 nM. Besides, the EC50 in the experiment with EpiSC-derived OPCs (Mus musculus, 72 h) worked out at 7.3 nM; in experiment [2] (Mus musculus, 24 h), 4.4 nM.

One may read the Ki as the dissociation constant of the complex between target and ligand, obtained from inhibition or displacement. Broadly, the EC50 is the midpoint of the concentration-response curve.

The values above are taken from US20240398781A1, “SPIROCYCLIC CYCLIC MODULATORS OF CHOLESTEROL BIOSYNTHESIS AND THEIR USE FOR PROMOTING REMYELINATION” (GENENTECH, INC., priority 2021, published 2024).
